Measured values: article PMC6753678, “Fueling Open Innovation for Malaria Transmission-Blocking Drugs: Hundreds of Molecules Targeting Early Parasite Mosquito Stages” (Frontiers in Microbiology, 2019)
Read-outs that look alike come from different tables or passages of the source.

Assays:
[1] = tested on: P. berghei ookinete development; details: for % inhibition, Replicate A / % inhibition, Replicate B: primary screen at 1 μM
[2] = tested on: 3D7-strain P. falciparum asexual parasites; assay: P. falciparum asexual growth inhibition assay (Pf GIA); assay type: cell-based, Plasmodium falciparum; details: dose response confirmation; read-out: Pf asexual growth inhibition assays IC50
In short: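 Parasites at 0.25% parasitemia, 2% hematocrit in Albumax-supplemented RPMI were exposed to compounds in dose response for 72 h at 37°C under 5% CO2/5% O2. Viability was read as LDH activity (NBT/diaphorase, A650 after freeze-thaw). Percent inhibition was calculated against chloroquine and DMSO controls, mean of three biological replicates.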

[3] = tested on: HepG2 cells; assay: HepG2 cytotoxicity assay; details: for IC50: read-out: HepG2 cytotoxicity assay IC50, dose response confirmation; for Pb ODA (this manuscript) HepG2 cytoxicity: HepG2 cytotoxicity listed with the Pb ODA data set (this manuscript)
In short: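 Percent inhibition derived from fluorescent viability readout, normalised to DMSO (negative) and 50 μM doxorubicin (positive). Compound incubation lasted 48 h at 37°C, 5% CO2, with 2,500 HepG2 cells/well in MEM plus 10% FBS and 1% NEAA.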

[4] = read-out: Pb ODA IC50, this manuscript
[5] = read-out: Pb Ookinete development assay IC50, dose response confirmation
[6] = HepG2 values of the three screens unified
[7] = unified HepG2 value across the three screens
[8] = read-out: Pb ODA (this manuscript) IC50, P. berghei ookinete development assay, this manuscript

SMILES | Is compound selective in assay? Pb ODA active? ([1]; 1: YES, 0: NO) | % inhibition, Replicate A [1] | % inhibition, Replicate B [1] | IC50 [1, 4] | IC50 [1, 5] | IC50 [2] | HepG2 cytoxicity (Pb ODA, this manuscript) [3] | Unified cytotox [3, 6] | IC50 [3] | Unified cytotox [3, 7] | Is compound selective in assay? Pb ODA active? [1] | Pb ODA (this manuscript) HepG2 cytoxicity [3] | IC50 [1, 8]
Nc1nc(N)c2c(ccc3c2ccn3CCCF)n1 [TCMDC-138623] | 0 (0: NO) | 92.24% | 33.21% | 1890 nM | 1890 nM | 122 nM | 1.10 µM | 1.10 µM | 1100 nM | – | – | – | –
Nc1nc(N)c2c(Cl)c(N3CCOCC3)ccc2n1 [TCMDC-137868] | 0 (0: NO) | 53.12% | 26.39% | 3800 nM | 3800 nM | 72 nM | – | – | 8.61 nM | 0.00861 µM | – | – | –
CCOC(=O)c1c[nH]c2c(ccc3ccccc32)c1=O [TCMDC-123857] | 1 (1: YES) | 88.11% | 83.13% | 560 nM | 562 nM | 443 nM | – | – | 100000 nM | 100.00 µM | – | – | –
Cc1ccc2[nH]c(C)c(Br)c(=O)c2c1 [TCMDC-124347] | 1 (1: YES) | 68.86% | 49.90% | 2450 nM | 2450 nM | 3820 nM | – | – | 100000 nM | 100.00 µM | – | – | –
N#Cc1cc([N+](=O)[O-])ccc1-n1nc(C(N)=O)n(Cc2cccc(F)c2)c1=S [TCMDC-134721] | 1 (1: YES) | 66.73% | 70.30% | 1120 nM | 1120 nM | 650 nM | – | – | 34700 nM | 34.67 µM | – | – | –
CCN(CC)CCCNc1c2ccccc2nc2ccccc12.Cl [TCMDC-125517] | 1 (1: YES) | 20.29% | 90.60% | 1610 nM | 1610 nM | 50 nM | 18.20 µM | 18.20 µM | 18200 nM | – | – | – | –
Cc1cc(=O)c(-c2ccc(Oc3cccc(Cl)c3)cc2)c(C)[nH]1 [TCMDC-137265] | 0 (0: NO) | 110.80% | 102.47% | 1280 nM | 1280 nM | 1850 nM | 3.72 µM | 3.72 µM | 3720 nM | – | – | – | –
CCCOc1cc(OCCC)cc(-c2cc(=O)c3ccccc3[nH]2)c1 [TCMDC-138943] | 1 (1: YES) | 86.05% | 83.39% | 550 nM | 547 nM | 76 nM | – | – | 100000 nM | 100.00 µM | – | – | –
Cc1[nH]c(C)c(-c2ccc(-c3ccccc3F)nc2)c(=O)c1Cl [TCMDC-135927] | 1 (1: YES) | 86.73% | 100.97% | 430 nM | 432 nM | 339 nM | – | 100.00 µM | 100000 nM | – | – | – | –
COc1ccc2nc3cc(Cl)ccc3c(NCCN(C)C)c2c1 [TCMDC-139093] | – | 73.14% | 67.89% | – | 2200 nM | 48 nM | – | – | 15800 nM | – | 0 (key: 1: YES; 0: NO) | 15.85 µM | –
CCCN1CCN(CCCCNc2c3ccccc3nc3ccccc23)CC1.Cl [TCMDC-137576] | 0 (0: NO) | 35.45% | 63.99% | 2330 nM | 2320 nM | 238 nM | 5.37 µM | 5.37 µM | 5370 nM | – | – | – | –
Cc1cc(C(=O)OCC(=O)Nc2c(C)n(C)n(-c3ccccc3)c2=O)c(C)n1-c1ccc(F)cc1 [TCMDC-123794] | 1 (1: YES) | 88.45% | 92.59% | – | 210 nM | 43 nM | – | – | 19500 nM | 19.50 µM | – | – | –
Cc1nc(C)c(-c2ccc(Oc3ccc(Cl)c(Cl)c3)cc2)c(O)c1Cl [TCMDC-137396] | – | 89.72% | 133.12% | – | 124 nM | 96 nM | – | – | 17000 nM | – | 1 (key: 1: YES; 0: NO) | 16.98 µM | 120 nM
COc1ccc2nccc([C@@H](O)CN3CCC(NCCOc4ccc(F)cc4Cl)CC3)c2c1.O=C(O)C(=O)O [TCMDC-140660] | 0 (0: NO) | 30.16% | 50.20% | 8290 nM | 8290 nM | 173 nM | 32.36 µM | 32.36 µM | 32400 nM | – | – | – | –
Cc1[nH]c(C)c(-c2ccc(-c3ccccc3Cl)nc2)c(=O)c1Br [TCMDC-136157] | 0 (0: NO) | 96.17% | 90.55% | 430 nM | 432 nM | 48 nM | 0.14 µM | 0.14 µM | 140 nM | – | – | – | –
CC(O)C(C)(CO)NCc1ccc2c3c(cccc13)-c1ccccc1-2.Cl (centres unmarked) [TCMDC-138117] | 0 (0: NO) | 18.85% | 67.10% | 610 nM | 608 nM | 490 nM | – | – | 4470 nM | 4.47 µM | – | – | –
Cc1cc(C(=O)NC2CCN(CC3(c4ccccc4)CCCCC3)CC2)on1 [TCMDC-124832] | 1 (1: YES) | 102.69% | 91.64% | 610 nM | 613 nM | < 0.2 nM | – | – | 13500 nM | 13.49 µM | – | – | –
CCC(C(C)C)n1ccc2c3c(N)nc(N)nc3ccc21 (centres unmarked) [TCMDC-137872] | 0 (0: NO) | 63.79% | 69.72% | 470 nM | 474 nM | < 0.2 nM | 0.0017 µM | 0.0017 µM | 1.7 nM | – | – | – | –
Cc1noc(C)c1-c1ccc2c(Nc3ccc(C(F)(F)F)cc3)c(C(N)=O)cnc2c1.Cl [TCMDC-136019] | – | 61.84% | 39.20% | – | 5460 nM | 365 nM | – | – | 49000 nM | – | 0 (key: 1: YES; 0: NO) | 48.98 µM | 5460 nM
Cl.O=c1cc(NCCCNCc2sc(Br)c(Br)c2Br)[nH]c2ccccc12 [TCMDC-139647] | 1 (1: YES) | 55.06% | 82.69% | 1960 nM | 1960 nM | 977 nM | – | – | 34700 nM | 34.67 µM | – | – | –
CC(C)N1CCN(CCCCNc2c3ccccc3nc3ccccc23)CC1.Cl [TCMDC-137573] | 0 (0: NO) | 42.86% | 78.36% | 2890 nM | 2890 nM | 10 nM | 5.75 µM | 5.75 µM | 5750 nM | – | – | – | –
COc1ccc2nccc([C@@H](O)CN3CCC(NCc4cc5c(F)ccc(F)c5[nH]4)CC3)c2n1.CS(=O)(=O)O [TCMDC-140749] | – | 52.78% | 27.90% | – | 3270 nM | 130 nM | – | – | 14100 nM | – | 0 (key: 1: YES; 0: NO) | 14.13 µM | 3270 nM
COc1ccc2ncc(F)c(CCN3CCC(NCc4cc(C)c5c(c4)OCCO5)CC3)c2n1.Cl [TCMDC-136209] | – | 56.92% | 30.84% | – | 1740 nM | 449 nM | – | – | 21400 nM | – | 1 (key: 1: YES; 0: NO) | 21.38 µM | 1740 nM
Cl.c1ccc(Oc2ccc(Nc3nncc4ccccc34)cc2)cc1 [TCMDC-137229] | 1 (1: YES) | 75.48% | 62.89% | 690 nM | 692 nM | 544 nM | – | – | 100000 nM | 100.00 µM | – | – | –
CCOC(=O)C(=O)N1c2ccc(OCC)cc2-c2c(ssc2=S)C1(C)C [TCMDC-124090] | 1 (1: YES) | 23.50% | 54.71% | 2010 nM | 2010 nM | 89 nM | – | – | 100000 nM | 100.00 µM | – | – | –
